According to ChEMBL document CHEMBL3739321, “Multicomponent reaction-based synthesis and biological evaluation of tricyclic heterofused quinolines with multi-trypanosomatid activity” (Eur J Med Chem, 2015):

What was measured:
[1] = test system: Leishmania infantum; assay: Potency index, ratio of potassium antimony (III) tartarate hydrate IC50 to compound IC50 for promastigote stage of Leishmania infantum MCAN/ES/92/BCN722; format: functional
[2] = test system: Trypanosoma brucei; assay: Potency index, ratio of nifurtimox IC50 to compound IC50 for bloodstream form of Trypanosoma brucei 221; format: functional
[3] = test system: Trypanosoma cruzi; assay: Potency index, ratio of benzanidazole IC50 to compound IC50 for epimastigote stage of Trypanosoma cruzi MHOM/ES/2203/BCN590; format: functional
[4] = test system: L6; assay: Cytotoxicity against rat L6 cells after 6 days by resazurin staining based fluorescence plate reader assay; format: cell-based
[5] = target: Leishmania infantum; assay: Leishmanicidal activity against promastigote stage of Leishmania infantum MCAN/ES/92/BCN722 after 48 hrs by acid phosphatase based assay; format: functional, organism-based
[6] = Selectivity index, ratio of IC50 for rat L6 cells to IC50 for promastigote stage of Leishmania infantum MCAN/ES/92/BCN722; format: toxicity, cell-based

Row | Molecule | Ratio IC50 [1] | Ratio IC50 [2] | also measured
1 | N#Cc1ccc(-c2nc3ccc(Cl)cc3c3c2CCN3)cc1 | <=5 |  | 
2 | OCCCc1cc2cc(Cl)ccc2nc1-c1cccs1 | <=5 |  | 
3 | NCc1ccc2nc(-c3ccc(Cl)cc3)c3c(c2c1)N(Cc1ccccc1)CCC3 | <=5 | 2 | 
4 | Clc1ccc2nc(-c3cccs3)c(CCCN3CCCC3)cc2c1 | <=5 |  | 
5 | N#Cc1ccc(-c2nc3ccc(Cl)cc3c3c2CCCCN3)cc1 | <=5 |  | 
6 | NCc1ccc(-c2nc3ccc(Cl)cc3c3c2CCCO3)cc1 | <=5 | 2 | 
7 | N#Cc1ccc([C@H]2Nc3ccc(Cl)cc3[C@@H]3OCCC[C@H]23)cc1 | <=5 |  | 
8 | Clc1ccc2nc(-c3cccs3)c3c(c2c1)OCCC3 | <=5 |  | 
9 | NCc1ccc(-c2nc3ccc(Cl)cc3c3c2CCCCN3)cc1 | <=5 | 2 | 
10 | CCN(CC)CCCc1cc2cc(Cl)ccc2nc1-c1cccs1 | <=5 |  | 
11 | NCc1ccc(-c2nc3ccc(Cl)cc3c3c2CCN3)cc1 | <=5 | 2 | 
12 | N#Cc1ccc(-c2nc3ccc(Cl)cc3c3c2CCCN3)cc1 | <=5 |  | 
13 | N#Cc1ccc(-c2nc3cc(Cl)ccc3cc2CCCN)cc1 | <=5 |  | 
14 | Clc1ccc2nc(-c3ccco3)c3c(c2c1)OCCC3 | <=5 |  | 
15 | N#Cc1ccc(-c2nc3ccc(Cl)cc3c3c2CCCO3)cc1 | <=5 |  | 
16 | NCc1ccc(-c2nc3cc(Cl)ccc3c3c2CCCN3)cc1 | <=5 | 2 | 
17 | N#CCCc1cc2cc(Cl)ccc2nc1-c1cccs1 | <=5 |  | 
18 | NCc1ccc(-c2nc3ccc(Cl)cc3c3c2CCCN3Cc2ccccc2)cc1 | <=5 | 2 | Ratio IC50 [3]: 4
19 | N#Cc1ccc(-c2nc3cc(Cl)ccc3c3c2CCCN3)cc1 | <=5 |  | 
20 | OCCCc1cc2cc(Cl)ccc2nc1-c1ccco1 | <=5 |  | 
21 | NCc1ccc(-c2nc3ccc(Cl)cc3c3c2CCCN3)cc1 | <=5 | 2 | 
22 | POTASSIUM ANTIMONYL TARTRATE TRIHYDRATE |  |  | IC50 [4]: 3.27 µM; IC50 [5]: 24.3 µM; Ratio IC50 [6]: 0.1
